Data: patent publication US11518760B2 (Liverpool School of Tropical Medicine, priority 2017, dated 2022)

Experiments:
[1] = test system: C6/36 Aedes albopictus cell line infected with Wolbachia pipientis (Wolbachia strain wAlbB); test: In vitro insect cell line assay (anti-Wolbachia screen, SYTO 11 high content imaging); type: cell-based; conditions: 168 h; C6/36 Aedes albopictus cells infected with Wolbachia pipientis wAlbB, 7 days incubation, SYTO 11 imaging; read-out: In vitro anti-Wolbachia activity
Summary of the method: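 SYTO 11 staining (15 min), high-content imaging and texture analysis were the read-out on day 7. Before that, C6/36 mosquito cells carrying Wolbachia strain wAlbB were incubated at 26 °C with test compound at 5 μM final, alongside DMSO-only control wells.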

[2] = test system: Wolbachia in adult Brugia malayi; test: Adult Brugia malayi mouse model, Wolbachia wsp qPCR; type: in vivo; conditions: Table 5A; BALB/c CCR3−/− mice, oral; dose/duration stands in the drawing (not visible)
Source text: In an adult Brugia malayi mouse model treatment groups (BALB/c CCR3−/− mice, 6-8 week old) received compounds by oral delivery for 7-28 days beginning at 6-10 weeks post-infection intraperitoneal with Brugia malayi third-stage larvae. Following treatment, at 12 weeks past-infection, adult worms and released microfilariae were recovered from the peritoneal cavity, counted and staged for sex. Genomic DNA was extracted from individual adult worms (10/group) and quantification of the Wolbachia surface protein (wBm-wsp) performed by quantitative PCR.
Treatment dosage unit is mg/kg (MK) and duration stated in days (d). Abbreviations: MIN (minocycline), bid (twice daily), Ms (mesylate). Data in Table 5A are expressed as a reduction in Wolbachia load in comparison to the vehicle control group.
Table 5B provides a comparison of two stereoisomers in the adult Brugia malayi mouse model above at a range of doses and durations of treatment. Data in Table 5B are expressed as a reduction in Wolbachia load in comparison to the vehicle control group.

Structure (SMILES)	EC50 [1] [nM]	% Wolbachia reduction cf median Vehicle [2] [%]
FC(F)(F)c1ccccc1CNc1nc(N2CCOCC23CCCC3)nc2ncccc12 [Example 286, 2-(9-oxa-6-azaspiro[4.5]decan-6-yl)-N-(2-(trifluoromethyl)benzyl)pyrido[2,3-d]pyrimidin-4-amine]	100 to 1000	–
C[C@H]1OCCN(c2nc(NCc3cccnc3C(F)(F)F)c3cccnc3n2)[C@H]1C [Example 287, 2-((2R,3S)-2,3-dimethylmorpholino)-N-((2-(trifluoromethyl)pyridin-3-yl)methyl)pyrido[2,3-d]pyrimidin-4-amine]	0.01 to 1	–
C[C@@H]1COCCN1c1nc(N2CCC2c2cccnc2C(F)(F)F)c2cccnc2n1 (stereo partly drawn) [Example 288, (3R)-3-methyl-4-(4-(2-(2-(trifluoromethyl)pyridin-3-yl)azetidin-1-yl)pyrido[2,3-d]pyrimidin-2-yl)morpholine]	1 to 10	–
C[C@H]1COCCN1c1nc(N2CCC2c2cccnc2C(F)(F)F)c2cccnc2n1 (stereo partly drawn) [Example 289, (3S)-3-methyl-4-(4-(2-(2-(trifluoromethyl)pyridin-3-yl)azetidin-1-yl)pyrido[2,3-d]pyrimidin-2-yl)morpholine]	0.01 to 1	–
C[C@@H]1COCCN1c1nc(N2CCC2c2ccccc2C(F)(F)F)c2cccnc2n1 (stereo partly drawn) [Example 290, (3R)-3-methyl-4-(4-(2-(2-(trifluoromethyl)phenyl)azetidin-1-yl)pyrido[2,3-d]pyrimidin-2-yl)morpholine]	0.01 to 1	–
C[C@H]1COCCN1c1nc(N2CCC2c2ccccc2C(F)(F)F)c2cccnc2n1 (stereo partly drawn) [Example 291, (3S)-3-methyl-4-(4-(2-(2-(trifluoromethyl)phenyl)azetidin-1-yl)pyrido[2,3-d]pyrimidin-2-yl)morpholine]	0.01 to 1	–
FC(F)OC1CCCN(c2nc(NCc3cccnc3C(F)(F)F)c3cccnc3n2)C1 (stereo not drawn) [Example 292, 2-(3-(difluoromethoxy)piperidin-1-yl)-N-((2-(trifluoromethyl)pyridin-3-yl)methyl)pyrido[2,3-d]pyrimidin-4-amine]	< 0.01	–
FC(F)(F)c1ncccc1CNc1nc(N2CC3CC(C2)O3)nc2ncccc12 [Example 293, 2-(6-oxa-3-azabicyclo[3.1.1]heptan-3-yl)-N-((2-(trifluoromethyl)pyridin-3-yl)methyl)pyrido[2,3-d]pyrimidin-4-amine]	1 to 10	–
FC(F)(F)c1ncccc1CNc1nc(N2CCOC3CC32)nc2ncccc12 (stereo not drawn) [Example 294, 2-(2-oxa-5-azabicyclo[4.1.0]heptan-5-yl)-N-((2-(trifluoromethyl)pyridin-3-yl)methyl)pyrido[2,3-d]pyrimidin-4-amine]	0.01 to 1	–
FC1(F)CN(c2nc(NCc3cccnc3C(F)(F)F)c3cccnc3n2)CC(F)(F)O1 [Example 295, 2-(2,2,6,6-tetrafluoromorpholino)-N-((2-(trifluoromethyl)pyridin-3-yl)methyl)pyrido[2,3-d]pyrimidin-4-amine]	10 to 100	–
FC(F)(F)c1ncccc1CNc1nc(N2CCCCC23CC3)nc2ncccc12 [Example 296, 2-(4-azaspiro[2.5]octan-4-yl)-N-((2-(trifluoromethyl)pyridin-3-yl)methyl)pyrido[2,3-d]pyrimidin-4-amine]	< 0.01	–
FC(F)(F)OC1CCN(c2nc(NCc3cccnc3C(F)(F)F)c3cccnc3n2)C1 (stereo not drawn) [Example 297, 2-(3-(trifluoromethoxy)pyrrolidin-1-yl)-N-((2-(trifluoromethyl)pyridin-3-yl)methyl)pyrido[2,3-d]pyrimidin-4-amine]	< 0.01	–
FC(F)(F)c1ncccc1CNc1nc(N2CCCC23CCC3)nc2ncccc12 [Example 298]	< 0.01	–
FC(F)(F)OCC1CCCN1c1nc(NCc2cccnc2C(F)(F)F)c2cccnc2n1 (stereo not drawn) [Example 299, 2-(2-((trifluoromethoxy)methyl)pyrrolidin-1-yl)-N-((2-(trifluoromethyl)pyridin-3-yl)methyl)pyrido[2,3-d]pyrimidin-4-amine]	< 0.01	–
FC(F)(F)c1ccccc1CNc1nc(N2CC3CC(C2)O3)nc2ncccc12 [Example 300, 2-(6-oxa-3-azabicyelo[3.1.1]heptan-3-yl)-N-(2-(trifluoromethyl)benzyl)pyrido[2,3-d]pyrimidin-4-amine]	< 0.01	–
FC(F)(F)c1ccccc1CNc1nc(N2CCOC3CC32)nc2ncccc12 (stereo not drawn) [Example 301, 2-(2-oxa-5-azabicyclo[4.1.0]heptan-5-yl)-N-(2-(trifluoromethyl)benzyl)pyrido[2,3-d)pyrimidin-4-amine]	0.01 to 1	–
CC1COCCN1c1nc(NCc2cccnc2C(F)(F)F)c2cc(F)cnc2n1 (stereo not drawn) [Example 303, 6-fluoro-2-(3-methylmorpholino)-N-((2-(trifluoromethyl)pyridin-3-yl)methyl)pyrido[2,3-d]pyrimidin-4-amine]	100 to 1000	–
COc1cnc2nc(N3CCOCC3C)nc(NCc3cccnc3C(F)(F)F)c2c1 (stereo not drawn) [Example 304]	1000 to 100000	–
COc1ccc2c(NCc3cccnc3C(F)(F)F)nc(N3CCOCC3C)nc2n1 (stereo not drawn) [Example 305, 7-methoxy-2-(3-methylmorpholino)-N-((2-(trifluoromethyl)pyridin-3-yl)methyl)pyrido[2,3-d]pyrimidin-4-amine]	1000 to 100000	–
CC1COCCN1c1nc(NCc2cccnc2C(F)(F)F)c2cncnc2n1 (stereo not drawn) [Example 306, 2-(3-methylmorpholino)-N-((2-(trifluoromethyl)pyridin-3-yl)methyl)pyrimido[4,5-d]pyrimidin-4-amine]	1000 to 100000	–
CC1COCCN1c1nc(NCc2ccccc2C(F)(F)F)c2cncnc2n1 (stereo not drawn) [Example 307, 2-(3-methylmorpholino)-N-(2-(trifluoromethyl)benzyl)pyrimido[4,5-d]pyrimidin-4-amine]	1000 to 100000	–
COc1cc2c(NCc3cccnc3C(F)(F)F)nc(N3CCOCC3C)nc2nc1OC (stereo not drawn) [Example 308, 6,7-dimethoxy-2-(3-methylmorphoIino)-N-((2-(trifluoromethyl)pyridin-3-yl)methyl)pyrido[2,3-d]pyrimidin-4-amine]	1000 to 100000	–
CC1COCCN1c1nc(NCc2cccnc2C(F)(F)F)c2nccnc2n1 (stereo not drawn) [Example 309, 2-(3-methylmorpholino)-N-((2-(trifluoromethyl)pyridin-3-yl)methyl)pteridin-4-amine]	100 to 1000	–
CC1COCCN1c1nc(NCc2ccccc2C(F)(F)F)c2nccnc2n1 (stereo not drawn) [Example 310, 2-(3-methylmorpholino)-N-(2-(trifluoromethyl)benzyl)pteridin-4-amine]	100 to 1000	–
CC1CCCN(c2nc(NCc3cccnc3C(F)(F)F)c3cccnc3n2)C1 (stereo not drawn) [Example 311, 2-(3-methylpiperidin-1-yl)-N-((2-(trifluoromethyl)pyridin-3-yl)methyl)pyrido[2,3-d]pyrimidin-4-amine]	0.01 to 1	–
CC1CCN(c2nc(NCc3cccnc3C(F)(F)F)c3cccnc3n2)CC1 [Example 312, 2-(4-methylpiperidin-1-yl)-N-((2-(trifluoromethyl)pyridin-3-yl)methyl)pyrido[2,3-d]pyrimidin-4-amine]	0.01 to 1	–
CC(C)N(C)c1nc(NCc2cccnc2C(F)(F)F)c2cccnc2n1 [drawing 691]	–	99.4
CC1COCCN1c1nc(NCc2cccnc2C(F)(F)F)c2cccnc2n1 (stereo not drawn) [drawing 692]	–	97.8
CC1COCCN1c1nc(NCc2cccnc2C(F)(F)F)c2cccnc2n1 (stereo not drawn) [drawing 693]	–	98.8
C[C@H]1COCCN1c1nc(NCc2cccnc2C(F)(F)F)c2cccnc2n1 [drawing 694]	–	98.5
